Measurements as given in PubChem BioAssay (NCI).
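At the GI50, growth is halved. Definition used: TGI = concentration required for complete inhibition of growth.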

What was measured:
Test in all cases: DTP human tumour cell line panel, 384-well format
[1] = test system: SK-MEL-5 melanoma
[2] = test system: A549 NSCLC
[3] = test system: HL-60(TB) leukemia
[4] = test system: HCC-2998 colon
[5] = test system: SR leukemia
[6] = test system: SF-268 CNS
[7] = test system: SF-539 CNS
[8] = test system: TK-10 renal
[9] = test system: MDA-MB-468 breast
[10] = test system: HT29 colon
[11] = test system: 786-0 renal
[12] = test system: LOX IMVI melanoma
[13] = test system: NCI/ADR-RES ovarian
[14] = test system: SNB-19 CNS
[15] = test system: M14 melanoma
[16] = test system: SN12C renal
[17] = test system: EKVX NSCLC
[18] = test system: KM12 colon
[19] = test system: MOLT-4 leukemia
[20] = test system: NCI-H522 lung
[21] = test system: MDA-MB-435 melanoma
[22] = test system: T-47D breast
[23] = test system: SK-MEL-28 melanoma
[24] = test system: COLO 205 colon
[25] = test system: NCI-H460 NSCLC
[26] = test system: A498 renal
[27] = test system: OVCAR-5 ovarian
[28] = test system: NCI-H23 lung
[29] = test system: SF-295 CNS
[30] = test system: SNB-75 CNS
[31] = test system: MCF7 breast
[32] = test system: IGROV1 ovarian
[33] = test system: HCT-15 colon
[34] = test system: MALME-3M melanoma
[35] = test system: NCI-H322M lung
[36] = test system: PC-3 prostate
[37] = test system: U251 glioblastoma
[38] = test system: HS 578T breast
[39] = test system: UO-31 renal
[40] = test system: HOP-92 NSCLC
[41] = test system: OVCAR-3 ovarian
[42] = test system: UACC-62 melanoma
[43] = test system: RPMI-8226 leukemia
[44] = test system: OVCAR-4 ovarian
[45] = test system: DU-145 prostate
[46] = test system: UACC-257 melanoma
[47] = test system: BT-549 breast
[48] = test system: NCI-H226 lung
[49] = test system: ACHN renal
[50] = test system: HCT-116 colon
[51] = test system: SK-OV-3 ovarian
[52] = test system: HOP-62 NSCLC
[53] = test system: RXF 393 renal
[54] = test system: CAKI-1 renal
[55] = test system: MDA-MB-231 breast
[56] = test system: SW-620 colon
[57] = test system: OVCAR-8 ovarian

## CO[C@H]1C(=O)[C@]2(C)[C@@H](OC)C[C@H]3OC[C@@]3(OC(C)=O)[C@H]2[C@H](OC(=O)c2ccccc2)[C@]2(O)C[C@H](OC(=O)[C@H](O)[C@@H](NC(=O)OC(C)(C)C)c3ccccc3)C(C)=C1C2(C)C
[1]
  GI50: < 0.01 µM
  TGI: < 0.01 µM
[2]
  GI50: < 0.01 µM
  TGI: > 55.1 µM
[3]
  GI50: < 0.01 µM
  TGI: < 0.01 µM
[4]
  GI50: < 0.01 µM
  TGI: < 0.01 µM
[5]
  GI50: < 0.01 µM
  TGI: < 0.01 µM
[6]
  TGI: > 62.6 µM
[7]
  GI50: < 0.01 µM
[8]
  GI50: < 0.01 µM
  TGI: > 100 µM
[9]
  GI50: < 0.01 µM
  TGI: < 0.01 µM
[10]
  GI50: < 0.01 µM
  TGI: < 0.01 µM
[11]
  GI50: < 0.01 µM
  TGI: > 78.8 µM
[12]
  GI50: < 0.0407 µM
  TGI: 22.6 µM
[13]
  GI50: 0.0189 µM
  TGI: 0.0548 µM
[14]
  GI50: < 0.01 µM
  TGI: > 100 µM
[15]
  GI50: < 0.01 µM
  TGI: > 100 µM
[16]
  GI50: < 0.01 µM
  TGI: > 100 µM
[17]
  GI50: < 0.01 µM
  TGI: 39.8 µM
[18]
  GI50: < 0.01 µM
  TGI: > 100 µM
[19]
  GI50: < 0.01 µM
  TGI: < 0.01 µM
[20]
  GI50: < 0.01 µM
  TGI: < 0.01 µM
[21]
  GI50: < 0.01 µM
  TGI: < 0.01 µM
[22]
  GI50: < 0.01 µM
  TGI: 89 µM
[23]
  GI50: > 100 µM
  TGI: > 100 µM
[24]
  GI50: < 0.01 µM
  TGI: < 0.01 µM
[25]
  GI50: < 0.01 µM
  TGI: < 0.01 µM
[26]
  GI50: < 0.01 µM
  TGI: 44.2 µM
[27]
  GI50: < 0.01 µM
  TGI: > 100 µM
[28]
  GI50: < 0.01 µM
  TGI: > 100 µM
[29]
  GI50: < 0.01 µM
[30]
  GI50: < 0.01 µM
[31]
  GI50: < 0.01 µM
  TGI: > 61.5 µM
[32]
  GI50: < 0.01 µM
  TGI: > 100 µM
[33]
  GI50: < 0.01 µM
  TGI: > 100 µM
[34]
  TGI: > 49.2 µM
[35]
  TGI: > 100 µM
[36]
  GI50: < 0.01 µM
  TGI: > 80.5 µM
[37]
  GI50: < 0.01 µM
  TGI: 21.2 µM
[38]
  GI50: < 0.01 µM
  TGI: < 0.01 µM
[39]
  GI50: < 0.0128 µM
  TGI: > 100 µM
[40]
  GI50: 22.2 µM
  TGI: > 100 µM
[41]
  GI50: < 0.01 µM
[42]
  GI50: < 0.01 µM
  TGI: > 49.7 µM
[43]
  GI50: < 0.01 µM
  TGI: < 0.01 µM
[44]
  GI50: < 0.01 µM
  TGI: 31.3 µM
[45]
  GI50: < 0.01 µM
  TGI: < 0.01 µM
[46]
  GI50: 32.7 µM
  TGI: > 100 µM
[47]
  GI50: < 0.01 µM
  TGI: < 0.01 µM
[48]
  GI50: < 0.01 µM
  TGI: 18.5 µM
[49]
  TGI: > 100 µM
[50]
  GI50: < 0.01 µM
  TGI: > 100 µM
[51]
  GI50: < 0.01 µM
  TGI: > 100 µM
[52]
  GI50: < 0.01 µM
  TGI: > 100 µM
[53]
  GI50: < 0.01 µM
  TGI: < 0.01 µM
[54]
  GI50: < 0.0131 µM
  TGI: > 69 µM

## Cc1ccc(C(=O)Nc2ccc(Oc3cc4cnn(C)c4cc3-c3cn[nH]c3)c(F)c2)c(=O)n1-c1ccc(F)cc1
[4]
  GI50: > 100 µM
  TGI: > 100 µM
[6]
  GI50: 0.698 µM
  TGI: 7.36 µM
[8]
  GI50: > 100 µM
  TGI: > 100 µM
[55]
  GI50: > 100 µM
  TGI: > 100 µM
[10]
  GI50: 3.03 µM
  TGI: > 100 µM
[11]
  GI50: > 100 µM
  TGI: > 100 µM
[12]
  GI50: 4.05 µM
  TGI: > 100 µM
[56]
  GI50: > 100 µM
  TGI: > 100 µM
[13]
  GI50: > 100 µM
  TGI: > 100 µM
[15]
  GI50: 2.56 µM
  TGI: > 100 µM
[18]
  GI50: 0.0165 µM
  TGI: > 100 µM
[19]
  GI50: 1.08 µM
  TGI: 19.8 µM
[23]
  GI50: 7.28 µM
  TGI: > 100 µM
[24]
  GI50: 4.91 µM
  TGI: > 100 µM
[27]
  GI50: > 100 µM
  TGI: > 100 µM
[28]
  GI50: 10.4 µM
  TGI: > 100 µM
[29]
  GI50: 2.37 µM
  TGI: > 100 µM
[30]
  GI50: 6.22 µM
  TGI: > 100 µM
[31]
  GI50: 5.56 µM
  TGI: > 100 µM
[32]
  GI50: 5.27 µM
  TGI: > 100 µM
[34]
  GI50: 5.29 µM
  TGI: > 100 µM
[57]
  GI50: > 100 µM
  TGI: > 100 µM
[35]
  GI50: > 100 µM
  TGI: > 100 µM
[38]
  GI50: 10.6 µM
  TGI: > 100 µM
[39]
  GI50: > 100 µM
  TGI: > 100 µM
[40]
  GI50: > 100 µM
  TGI: > 100 µM
[42]
  GI50: 2.42 µM
  TGI: > 100 µM
[44]
  GI50: > 100 µM
  TGI: > 100 µM
[49]
  GI50: 6.44 µM
  TGI: > 100 µM
[52]
  GI50: 3.81 µM
  TGI: > 100 µM
[53]
  GI50: 2.57 µM
  TGI: > 100 µM
[54]
  GI50: 5.86 µM
  TGI: > 100 µM
